Reference: ChEMBL document CHEMBL1146149, “The development of 2-benzimidazole substituted pyrimidine based inhibitors of lymphocyte specific kinase (Lck)” (Bioorg Med Chem Lett, 2006)
Converted amounts (≈) assume the structure as drawn.

Assays:
[1] = Aqueous solubility at pH 7.4; format: physicochemical
[2] = Loss of metabolic stability in Sprague-Dawley rat hepatocytes after 1 hr at 1 uM; format: ADME, cell-based, Hepatocyte; details: read-out: Activity
[3] = tested on: Jurkat; experiment: Inhibition of IL2 production in Jurkat E6-1 T cells by ELISA; details: Homo sapiens
[4] = target: Tyrosine-protein kinase Lck (Homo sapiens, UniProt P06239)
Description: Inhibition of human recombinant Lck by ProFlour assay

[5] = target: Proto-oncogene tyrosine-protein kinase Src (Homo sapiens, UniProt P12931); experiment: Inhibition of human recombinant Src by ProFlour assay
Proto-oncogene tyrosine-protein kinase Src, sequence (P12931 2-536 limits assumed): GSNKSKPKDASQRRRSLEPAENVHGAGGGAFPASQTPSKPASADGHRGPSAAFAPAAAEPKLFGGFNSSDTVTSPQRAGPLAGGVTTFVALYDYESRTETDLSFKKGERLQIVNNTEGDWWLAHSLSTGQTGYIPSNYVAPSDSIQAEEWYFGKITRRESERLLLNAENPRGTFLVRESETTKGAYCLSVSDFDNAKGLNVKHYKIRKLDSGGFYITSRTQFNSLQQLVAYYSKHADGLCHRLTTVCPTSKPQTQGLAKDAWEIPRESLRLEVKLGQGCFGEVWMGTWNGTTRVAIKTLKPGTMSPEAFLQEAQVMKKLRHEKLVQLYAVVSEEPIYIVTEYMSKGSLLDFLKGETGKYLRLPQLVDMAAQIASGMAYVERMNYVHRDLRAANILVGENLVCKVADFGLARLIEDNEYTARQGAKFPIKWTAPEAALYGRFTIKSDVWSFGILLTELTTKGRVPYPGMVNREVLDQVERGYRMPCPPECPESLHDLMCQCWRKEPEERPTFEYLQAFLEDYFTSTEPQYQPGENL

Tyrosine-protein kinase Lck, sequence (P06239 whole entry): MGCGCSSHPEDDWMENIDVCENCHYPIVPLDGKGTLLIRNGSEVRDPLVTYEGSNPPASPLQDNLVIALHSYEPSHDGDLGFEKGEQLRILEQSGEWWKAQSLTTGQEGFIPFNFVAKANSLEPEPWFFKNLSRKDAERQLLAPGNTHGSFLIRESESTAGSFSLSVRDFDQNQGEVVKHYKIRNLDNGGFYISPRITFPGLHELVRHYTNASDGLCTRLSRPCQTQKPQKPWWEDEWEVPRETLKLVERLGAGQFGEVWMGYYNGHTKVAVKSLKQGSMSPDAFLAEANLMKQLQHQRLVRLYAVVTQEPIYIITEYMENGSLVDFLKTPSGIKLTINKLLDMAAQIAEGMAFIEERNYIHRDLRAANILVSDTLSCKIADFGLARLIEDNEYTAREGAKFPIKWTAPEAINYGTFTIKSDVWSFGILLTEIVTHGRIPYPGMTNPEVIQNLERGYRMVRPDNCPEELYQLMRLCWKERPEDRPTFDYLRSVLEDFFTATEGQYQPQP

Row | solubility [1] [µg/mL] | metabolised at 1 h, 1 µM [2] [%] | IC50 [3] [nM] | IC50 [4] [nM] | IC50 [5] [nM] | SMILES
1 | 54 (≈ 118 µM) | 39 | 2280 | – | – | Cc1ccc(O)cc1Nc1cc(NCCN2CCN(C)CC2)nc(-n2cnc3ccccc32)n1
2 | – | – | – | > 10000 | – | COc1ccc(C)c(Nc2nccc(-n3cnc4ccccc43)n2)c1
3 | 40 (≈ 93.3 µM) | – | 163 | – | – | Cc1ccc(O)cc1Nc1cc(CC2CCN(C)CC2)nc(-n2cnc3ccccc32)n1
4 | ≤ 0.1 | – | – | – | – | Cc1ccc(O)cc1Nc1cc(N2CCN(C)CC2)nc(-n2cnc3ccccc32)n1
5 | 3 (≈ 6.72 µM) | 48 | 54 | – | – | Cc1ccc(O)cc1Nc1cc(OCCN2CCOCC2)nc(-n2cnc3ccccc32)n1
6 | 70 (≈ 152 µM) | 35 | 400 | – | – | Cc1ccc(O)cc1Nc1cc(OCCN2CCN(C)CC2)nc(-n2cnc3ccccc32)n1
7 | – | – | – | > 10000 | – | Cc1ccc(F)cc1Nc1ccnc(-n2cnc3ccccc32)n1
8 | – | – | – | > 10000 | – | Cc1ccc(O)cc1Nc1cc(-n2cnc3ccccc32)ncn1
9 | 55 (≈ 132 µM) | 48 | 2200 | – | – | Cc1ccc(O)cc1Nc1cc(NCCCN(C)C)nc(-n2cnc3ccccc32)n1
10 | 27 (≈ 58.6 µM) | – | 1270 | – | – | COc1ccc(C)c(Nc2cc(OCCN3CCOCC3)nc(-n3cnc4ccccc43)n2)c1
11 | – | – | – | > 10000 | – | Oc1cccc(Nc2nccc(-n3cnc4ccccc43)n2)c1
12 | 127 (≈ 294 µM) | 45 | 549 | – | 162 | CCN(CC)CCNc1cc(Nc2cc(O)ccc2C)nc(-n2cnc3ccccc32)n1
